Measured values from patent publication US11806344B2, “Pharmaceutical composition comprising mineralocorticoid receptor antagonist and use thereof” (priority 2016, dated 2023).
Entries after “also recorded” stand apart in the source; their conditions may differ. Where two headings read alike, the source gives them in different places.

Tests used:
[1] = Safety, tolerability and pharmacokinetics in healthy subjects, single dose (Example 7); assay type: in vivo, human; conditions: human, plasma, oral
Method: (§1) Five groups of healthy subjects were given capsules at doses of 0.5 mg (1 capsule, 0.5 mg of Compound I per capsule), 1.0 mg (2 capsules, 0.5 mg of Compound I per capsule), 2.5 mg (1 capsule, 2.5 mg of Compound I per capsule), 10 mg (1 capsule, 10 mg of Compound I per capsule), and 30 mg (3 capsules, 10 mg of Compound I per capsule), each group containing 8 subjects. The drug administration was done only once.
(§2) The capsules mentioned above were the ones prepared in Example 2, i.e., the capsules of Capsule formulation 3 (0.5 mg of Compound I per capsule), Capsule formulation 4 (2.5 mg of Compound I per capsule), and Capsule formulation 5 (10 mg of Compound I per capsule).
(§3) Plasma samples were collected to measure plasma drug concentration, and the pharmacokinetic parameters were analyzed using the non-compartment model. Serum samples were collected to measure serum potassium levels.

[2] = test system: healthy subjects; assay: as above; assay type: in vivo, human; conditions: single dose 0.5 to 30 mg/day
Method: as §1, §2, §3

[3] = Absorption of capsules of Capsule formulation 5 in Beagle dogs (Example 3-4); assay type: in vivo; conditions: dog, plasma; mean of four Beagle dogs, oral, 2.67 mg/kg; read-out: BA % (Mean, average bioavailability)
Method: Capsule of Capsule formulation 5 as prepared in Example 2, 10 mg of Compound I per capsule.
Solutions: 5% DMSO+95% (6% HP-β-CD solution)
Animals: Four Beagle Dogs.
(1) Administration of capsules. All animals fasted for 12 h or longer before drug administration, and food was supplied 4 h after drug administration, with always ad libitum access to water. Beagle dogs were orally given the capsule of Capsule formulation 5 as prepared in Example 2 (two capsules for each Beagle, 10 mg of Compound I per capsule) in a single dose, and 200 μL of blood was collected for each animal, via the small saphenous vein, immediately prior to the administration (0 h) and 0.17 h, 0.50 h, 0.75 h, 1.0 h, 2.0 h, 4.0 h, 6.0 h, 8.0 h, 12 h and 24 h after the administration. The collected blood was stored in a dry tube with heparin (normal saline containing 0.1% heparin sodium). (2) Plasma preparation. The whole blood samples collected in step (1) were subject to centrifugation at a low speed (8000 r/min, 6 min, 4° C.) to separate the plasma (the whole blood was stored in a mobile freezer at about 0 to 4° C., and plasma had to be separated within 30 minutes after the blood collection), and the plasma was kept in dark in a freezer at −70° C. (or lower) for future analysis.

[4] = Safety, tolerability and pharmacokinetics in healthy subjects, multiple doses (Example 8); assay type: in vivo, human; conditions: human, plasma, oral, healthy subjects, 14 days, read-out: average steady-state AUC0-24 (AUCtau)
Method: (§4) Two groups of healthy subjects were given capsules once a day at daily doses of 2.5 mg (1 capsule for each administration, 2.5 mg of Compound I per capsule), and 5.0 mg (2 capsules for each administration, 2.5 mg of Compound I per capsule), respectively, each group containing 6 subjects. The administration continued for 14 consecutive days. The capsules used in this study were of Capsule formulation 4 prepared in Example 2.
as §3

[5] = test system: healthy subjects; assay: as above; assay type: in vivo, human; conditions: for average steady-state AUC0-24 (AUCtau): 14 days
Method: as §4, §3

[6] = 13-week toxicity and pharmacokinetic study in SD rats with 4-week recovery (Example 5); assay type: in vivo; conditions: rat, in vivo; for AUC(0-t): SD, po, read-out: AUC0-24 h; for NOAEL at 13 weeks: oral, read-out: NOAEL (no observed adverse effect level)
Method: (§5) Sample to test: Solid dispersion of Compound I (Compound I:PVPK30=1:8 (w/w))
(§6) Animals: SD Rats, SPF Level.
(§7) Two hundred and twenty SD rats were used in the studies. Three groups, i.e., high dose group, intermediate dose group and low dose group, were administered with Compound I with following doses, 20 males and 20 females for each group. In specific, male animals were given the suspension at the doses of 3, 9 and 30 mg/kg/day, respectively, while the females were administered at the doses of 1, 3, and 10 mg/kg/day, respectively. The animals in the control group, 20 males and 20 females, were given purified water. All animals fasted overnight before blood collections and anatomical examinations.
(§8) In addition, for the pharmacokinetic study, 9 males and 9 females were assigned into the administration group, while 3 males and 3 females were for the control group.

[7] = test system: SD rats; assay: as above; assay type: in vivo; conditions: 13 weeks
Method: as §5, §6, §7, §8

[8] = Effect of surfactants on absorption in SD rats (Example 4-1); conditions: rat, plasma, oral, 1 mg/kg
Method: Blood collection: The animals were fixed and had their tails warmed in a water bath 10 min prior to blood collection; about 100 μL of blood was collected through the tail vein for each animal and put into an anticoagulation tube containing hepatin; the blood samples were subject to centrifugation at 8000 rpm for 6 min at 4° C. to obtain plasma samples, which had to be obtained within 30 minutes after blood was collected; the plasma samples were stored in a freezer at −80° C. for future tests.
Sample analysis: 50 μL of each plasma sample from the freezer was transferred to a centrifugal tube; 100 μL of water and 400 μL of MTBE standard solution (50 ng/mL) were added into the tube and well mixed with the plasma; the obtained mixture was mixed for 10 minutes using a vortex mixer and then subject to centrifugation for 5 minutes (12000 r/min); 300 μL of the supernatant was transferred to another centrifugal tube and blown dry with nitrogen gas; the resultant substance was dissolved in 200 μL of a solution consisting of methanol and water at a ratio of 1:1, of which 20 μL was used for the LC-MS/MS measurement.
Data processing: the compound concentration was output by Analyst 1.6.1 (AB Sciex); the means, standard deviations, and variation coefficients were calculated using Microsoft Excel (no calculation needed if these parameters were directed output by Analyst 1.6.1), and pharmacokinetic parameters were determined using the NCA analysis object in Pharsight Phoenix 6.3.

[9] = healthy subjects, multiple doses 2.5 mg/day

N#Cc1ccc(N2N=C3c4ccc(C(=O)N5CCC(O)CC5)nc4CC[C@@H]3[C@@H]2C2CCCC2)cc1Cl [Compound I, 2-chloro-4-[(3S,3aR)-3-cyclopentyl-7-(4-hydroxylpiperidine-1-carbonyl)-3,3a,4,5-tetrahydro-2H-pyrazolo[3,4-f]quinolin-2-yl]benzonitrile]
half-life ([1]; single dose 0.5 mg): 61.5 h
AUC(0-t) ([1]; single dose 0.5 mg capsule, read-out: AUC0-24): 162 ng·h/mL
half-life ([1]; single dose 1.0 mg): 60.9 h
AUC(0-t) ([1]; single dose 1.0 mg capsules, read-out: AUC0-24): 397 ng·h/mL
half-life ([1]; single dose 2.5 mg): 53.3 h
AUC(0-t) ([1]; single dose 2.5 mg capsule, read-out: AUC0-24): 640 ng·h/mL
half-life ([1]; single dose 10 mg): 52.8 h
AUC(0-t) ([1]; single dose 10 mg capsule, read-out: AUC0-24): 3080 ng·h/mL
half-life ([1]; single dose 30 mg): 73.9 h
AUC(0-t) ([1]; single dose 30 mg capsules, read-out: AUC0-24): 5020 ng·h/mL
half-life ([1]; single dose 0.5 to 30 mg/day): ~60 h
AUC(0-t) ([1]; single dose 0.5 to 30 mg/day, read-out: AUC0-24 (range over dose groups)): 162 to 5020 ng·h/mL
serum potassium level (observation) [2]: no elevated serum potassium level was observed
bioavailability [3]: 56.5%
AUC(0-t) ([4]; 2.5 mg/day, multiple doses 2.5 mg/day): 2860 ± 821 ng·h/mL
AUC(0-t) ([4]; 5 mg/day, multiple doses 5.0 mg/day): 6380 ± 1030 ng·h/mL
serum potassium level (observation) ([5]; healthy subjects (6), multiple doses 5.0 mg/day): transient elevated serum potassium level observed in three subjects; also recorded: elevated serum potassium levels were observed in 3 subjects but were transient
serum potassium level (observation) [5, 9]: no elevated serum potassium level observed; also recorded: elevated serum potassium levels were not observed
average steady-state AUC0-24 (AUCtau) [5, 9]: 2863 ± 822 ng·h/mL
average steady-state AUC0-24 (AUCtau) ([5]; healthy subjects, multiple doses 5.0 mg/day): 6373 ± 1026 ng·h/mL
AUC individual variation: highest AUC vs lowest AUC subject ([5]; healthy volunteers, capsule, multiple doses 2.5 mg daily): 2.37 times
AUC(0-t) ([6]; female, 1 mg/kg/day, female SD rats, 1 mg/kg/day intragastric, 13 weeks): 4080 ng·h/mL
AUC(0-t) ([6]; female, 3 mg/kg/day, female SD rats, 3 mg/kg/day intragastric, 13 weeks): 15500 ng·h/mL
AUC(0-t) ([6]; female, 10 mg/kg/day, female SD rats, 10 mg/kg/day intragastric, 13 weeks): 43600 ng·h/mL
AUC(0-t) ([6]; male, 3 mg/kg/day, male SD rats, 3 mg/kg/day intragastric, 13 weeks): 5430 ng·h/mL
AUC(0-t) ([6]; male, 9 mg/kg/day, male SD rats, 9 mg/kg/day intragastric, 13 weeks): 16500 ng·h/mL
AUC(0-t) ([6]; male, 30 mg/kg/day, male SD rats, 30 mg/kg/day intragastric, 13 weeks (steady-state)): 49900 ng·h/mL
NOAEL at 13 weeks ([6]; female SD rats, 13 weeks): 10 mg/kg/day
NOAEL at 13 weeks ([6]; male SD rats, 13 weeks): 30 mg/kg/day
serum potassium level (observation) ([7]; SD rats, high dose/NOAEL (male 30, female 10 mg/kg/day)): no obvious abnormal serum potassium level was observed; also recorded: serum potassium level was not elevated
K+ (Mean ± SD) ([7]; female SD rats, 1 mg/kg/day intragastric): 4.4 ± 0.4 mmol/L
K+ (Mean ± SD) ([7]; female SD rats, 3 mg/kg/day intragastric): 4.4 ± 0.3 mmol/L
K+ (Mean ± SD) ([7]; female SD rats, 10 mg/kg/day intragastric): 4.5 ± 0.2 mmol/L
K+ (Mean ± SD) ([7]; male SD rats, 3 mg/kg/day intragastric): 5.0 ± 0.3 mmol/L
K+ (Mean ± SD) ([7]; male SD rats, 9 mg/kg/day intragastric): 5.0 ± 0.3 mmol/L
K+ (Mean ± SD) ([7]; male SD rats, 30 mg/kg/day intragastric): 5.1 ± 0.2 mmol/L
side effects (observation) ([7]; male SD rats, high dose 30 mg/kg/day): No obvious side effect was observed
bioavailability [8]: 64.7%
